Assay results taken from patent US8158589B2, “Peptides with the capacity to bind to transforming growth factor β1 (TGF-β1)” (Proyecto Biomedicine Cima, S.L., priority 2003, dated 2012).
Ends that are not written are not given here.

Legend:
TGF-β1 [1] = target: TGF-β1 (Homo sapiens, UniProt P01137); assay type: cell-based; parameters: purchased Roche; host or cells: added to Mv-1-Lu (CCL-64) mink lung epithelial cells
Description: The cell line Mv-1-Lu (CCL-64, […], Virginia, USA) derives from mink pulmonary epithelium, grows as a monolayer, and responds to the presence of TGF-β1 by decreasing its proliferation (FIG. 5). Thus, the peptide-mediated inhibition of this cytokine is able to restore cell growth and reflects the capacity of the different peptides to inhibit the biological activity of TGF-β1 in vitro. The peptides tested were obtained by peptide synthesis, in accordance to conventional procedures (Merrifield R B. J Am Chem Soc 1963; 85:2149-2154; Atherton E et al. J Chem Soc Perkin Trans 1981; 1:538-546).
The Mv-1-Lu cells are cultured to confluence in complete medium [RPMI-1640 supplemented with L-glutamine, sodium pyruvate, antibiotics and 10% fetal bovine serum (FBS)] at 37° C. and in 5% CO2 in 162 cm^2 bottles (Costar Corporation, CA, USA). Following trypsinization, the cells are cultured in 200 μl of complete medium in 96-well plates at an initial density of 5,000 cells/well at 37° C. and in 5% CO2 during 6 hours to ensure adhesion. Then, different concentrations of the peptides to be tested are added, starting from 200 μg/ml, and following 200 pg/ml of TGF-β1 (Roche) are added. After 12 hours of incubation 1 μCi of methyl-3H-thymidine (Amersham Life Science, Buckinghamshire, United Kingdom) is added per well in 25 μl of clean medium (RPMI-1640). The plate is incubated for 12 more hours under the same conditions. Finally, the cells are harvested (Filtermate 196 Harvester, Packard), transferring the tritiated thymidine, incorporated in the course of DNA synthesis, to plates (UniFilter-96 GF/C®, Perkin Elmer). Following the addition of scintillation fluid, the radioactivity was quantified using a scintillation counter (Top Count, Microplate Scintillation Counter, Packard). As positive and negative control, use was made of the incorporation of tritiated thymidine in the absence and presence of TGF-β1, respectively. The inhibition of TGF-β1 activity in this test was calculated based on the following formula: […]
The negative control represents the incorporation of tritiated thymidine in the presence of TGF-β1 but in the absence of peptide, whereas the positive control refers to the incorporation of tritiated thymidine in the absence of TGF-β1 and peptide. Thus, according to the capacity of the peptides to revert the cytokine repressor effect on Mv-1-Lu cell line proliferation, percentage of TGF-β1 biological activity inhibition by the peptides can be measured (Table 2).
Comparisons have been made of the activity of truncated peptides (derived from peptide sequence SEQ ID NO: 17) versus the complete sequence, in terms of the capacity to revert the suppressor effect of TGF-β1 upon proliferation of the Mv-1-Lu cell line. To this effect, and to determine the minimum sequence of peptide SEQ ID NO: 17 capable of inhibiting the biological activity of TGF-β1 in vitro, truncated versions of this peptide were synthesized, with truncation at the N-terminal end, C-terminal end or in both ends of the molecule. The peptides tested were obtained by peptide synthesis following conventional procedures (Merrifield R B. J Am Chem Soc 1963; 85:2149-2154; Atherton E et al. J Chem Soc Perkin Trans 1981; 1:538-546). Following the same methodology described in Example 2, the activity of truncated peptides versus the complete sequence of the peptide SEQ ID NO: 17 was quantified, in terms of a proliferation assay of the Mv-1-Lu cell line.

TGF-β1 [2] = target: T1, TGF-β1 (Mus musculus, UniProt P04202); assay: Bleomycin-induced pulmonary fibrosis, therapeutic treatment started ten days after bleomycin; assay type: in vivo, mice
T1 construct: from tissue; host or cells: liver of Balb/C mice (CCl4 model); lung of C57BL/6 mice (bleomycin model)
Method: Female C57BL/6 mice (6-8 weeks of age) were obtained from Harlan SL (Barcelona, Spain) and maintained in accordance with the ethical committee of Universidad de Navarra (Spain) for the experimental use of animals. Lung injury was induced with 0.08 units/mouse of bleomycin sulfate (Sigma, Spain) diluted in 200 μl of phosphate buffered saline (PBS). Briefly, the suspension of bleomycin was instilled by pippeting into the nose of mice previously anesthetized with 2% isoflurane vapor. PBS was instilled in mice as a negative control for pulmonary fibrosis (PF), following the same procedures. Peptide treatment was started two days after bleomycin challenge and it was administered intraperitoneally in 500 μl of PBS on alternate days. Mice received high (75 μg/mouse) or low (25 μg/mouse) doses of P17, or the high dose (75 μg/mouse) of control peptide P301. Lungs were obtained 15 or 26 days after bleomycin administration to evaluate profibrogenic gene expression or histological damage, respectively. To study the therapeutic effect of P17 in the development of fibrosis, it was administered daily ten days after bleomycin challenge, once fibrosis was established. […]
Lungs were fixed by inflation with 4% paraformaldehyde overnight and dehydrated in 70% ethanol. […] Percentage of fibrosis in the lung was evaluated by light microscopy by three different qualified persons using a blinded system.

T1 sequence (P04202 279-390 limits assumed): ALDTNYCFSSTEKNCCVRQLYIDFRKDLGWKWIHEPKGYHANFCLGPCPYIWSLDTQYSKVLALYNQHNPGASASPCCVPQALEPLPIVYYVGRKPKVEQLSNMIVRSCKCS
Sequence of TGF-β1 (Homo sapiens, UniProt P01137) (P01137 279-390 limits assumed, species assumed): as the sequence (P04202 279-390 limits assumed) above, with S75A counted along it

How did the “% Inhibition of in vitro TGF-β1 biological activity” value (TGF-β1 [1]) turn out when “KRIWFIPRSSWYERA [SEQ ID NO: 17, KRIWFIPRSSWYERA]” was run?
Its value is 28.5%.

And the “lung fibrosis (Masson's Trichrome), established fibrosis” value (TGF-β1 [2]; 25 μg/mouse daily from day 10, day 26)?
The value was “No beneficial effect”.

What about the “lung fibrosis (Masson's Trichrome), established fibrosis” value (TGF-β1 [2]; 75 μg/mouse daily from day 10, day 26, vs untreated mice) of the same sequence?
Its value is “significant attenuation of fibrosis”.
